We go through two molecules from patent US10363231B2, “Compounds and methods of treating ocular disorders” (CASE WESTERN RESERVE UNIVERSITY, priority 2014, dated 2019).

Each structure is given as a SMILES string.

For one data set, the target named is T1, LRAT (Bos taurus, UniProt Q9BGL2).
T1 construct: incubated with RPF microsomes that served as a source of LRAT enzymatic activity; from tissue; host or cells: bovine retinal pigment epithelium (RPE) microsomes
T1 sequence (Q9BGL2 1-230): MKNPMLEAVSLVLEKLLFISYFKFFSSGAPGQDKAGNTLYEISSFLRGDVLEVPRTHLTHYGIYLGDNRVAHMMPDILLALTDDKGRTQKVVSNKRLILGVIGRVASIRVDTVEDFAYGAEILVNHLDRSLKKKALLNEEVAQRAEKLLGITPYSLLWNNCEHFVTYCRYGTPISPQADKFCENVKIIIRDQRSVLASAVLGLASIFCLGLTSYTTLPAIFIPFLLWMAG
In words: LRAT activity assay with bovine RPE microsomes (esterification of the corresponding primary alcohols). Format: biochemical. Particulars: for LRAT Substrate: percentage of the corresponding primary alcohol esterified by LRAT in 1 h at 37° C, 10 μM, RPE microsomes. On the procedure:
Bovine RPE microsomes were isolated from RPE homogenates by differential centrifugation as previously described. The resulting microsomal precipitate was resuspended in 10 mM Bis-Tris propane/HCl buffer, pH 7.4, to achieve a total protein concentration of […]. Then the mixture was placed in a quartz cuvette and irradiated for 6 min at 4° C. with a ChromatoUVE transilluminator (model TM-15; UVP) to eliminate residual retinoids. After irradiation, DTT was added to the RPE microsomal mixture to achieve a final concentration of 5 mM.
Two μl of a synthesized primary alcohol or amine dissolved in DMF (final concentration 10 μM) and 2 μl of 1,2-diheptanoyl-sn-glicerol-3-phosphocholine (water, final concentration 1 mM) were added to 200 μl of 10 mM Bis-Tris propane/HCl buffer, pH 7.4, containing 150 μg of RPE microsomes and 1% (v/w) BSA. The resulting mixture was incubated at 37° C. for 1 h. The reaction was quenched by adding 300 μl of methanol. Most reaction products were extracted with 300 μl of hexanes, except for products from the QEA-C-006 and QEA-G groups which were extracted by adding 300 μl of ethyl acetate and 300 μl of water.
Reaction products were separated and quantified by normal phase HPLC (Agilent Sil 5 μm, 4.6 mm×250 mm) in stepwise gradient of ethyl acetate in hexanes (0-15 min, 10%; 20-30 min, 30%) at a flow rate of 1.4 ml·min^−1.
The properties of retinoid derivatives were examined by two standard enzymatic tests, the […] and retinoid isomerization assays. To identify substrates of LRAT, aldehydes were reduced by sodium borohydrate to their corresponding primary alcohols that then were directly used in the esterification assay (FIG. 2B).
The alcohols were incubated with RPF microsomes that served as a source of LRAT enzymatic activity. Products of the enzymatic reaction as well as the remaining substrates were extracted with organic solvents and analyzed by HPLC. The ratio between a substrate and its esterified form was used to measure enzymatic activity efficiency, based on equivalent UV absorption of the substrate and product at their specific UV maxim wavelengths. Compounds classified as ‘good’ LRAT substrates converted at least 50% of their available alcohol substrates into corresponding esters under these experimental conditions, whereas marginal LRAT substrates were converted at less than 5%. Alcohols with a 5-50% conversion ratio were classified as weak substrates. Among 35 tested compounds, 23 were categorized as good and 9 as weak substrates; 3 compounds were not esterified by LRAT (Table 1 and FIG. 2C). […] Moreover, breaking double bond conjugation along the polyene chain or deletion of a C9 and/or a C13 methyl group also was allowed.

Data set [1] can be described thus: Analysis of retinoid composition in mouse tissues: amide forms in liver by HPLC. Format: in vivo, mice. As to conditions: oral gavage; for Protection by amide in liver: 4-week-old Abca4−/−Rdh8−/− mice, dark 24 h, liver extracts by HPLC. The method, then: (§1) Abca4^−/−Rdh8^−/− double knockout mice were generated as previously described. Mice were housed in the animal facility at the School of Medicine, Case Western Reserve University, where they were maintained under either complete darkness or in a 12-h light (˜300 lux) and 12-h dark cycle. All tested primary amines were suspended in 100 μl of soybean oil with less than 10% (v/v) DMSO and were administered by oral gavage with a 22-gauge feeding needle. Experimental manipulations in the dark were done under dim red light transmitted through a Kodak No. 1 safelight filter (transmittance >560 nm). All animal procedures and experiments were approved by the Case Western Reserve University Animal Care Committees and conformed to recommendations of the American Veterinary Medical Association Panel on Euthanasia and the Association of Research for Vision and Ophthalmology.
Two mg of primary amines were administered by oral gavage to 4-week-old Abca4^−/−Rdh8^−/− mice, which then were kept in the dark for 24 h. Then mice were euthanized, and their livers were homogenized in 1 ml of 10 mM sodium phosphate buffer, pH 7.4, containing 50% methanol (v/v). The resulting mixture was extracted with 4 ml of hexanes. Extracts were dried in vacuo, and reconstituted in 300 μl of hexanes. 100 μl of this solution was analyzed by HPLC as described above for the LRAT activity assay.
(§2) For practical reasons, only eight of these leading compounds (QEA-B-001-NH2, B-002-NH2, C-001-NH2, C-003-NH2, C006-NH2, E-002-NH2, TEA-B-002-NH2, and C00-2-NH2) along with retinylamine as a control were selected for further testing in Abca4^−/−Rdh8^−/− mice, an animal model for light-induced retinal degeneration (Table 2). Additionally, two novel amines with moderate inhibition of RPE65 (QEA-A-006-NH2 and QEA-B-003-NI 12) and one with strong inhibition (QEA-A-005-NH2) were added to the first test group for comparison. Mice were gavaged with 1 mg of a test compound and then kept in the dark for 24 h prior to being exposed to bright light (˜10,000 lux) for 1 h. Retinal damage was assessed with OCT that measured the thickness of the outer nuclear layer and by quantification of tissue 11-cis retinal levels. An example is shown for imaging results in FIG. 4A and for 11-cis-retinal quantification in FIG. 4B. Additionally, extracts of livers obtained from treated mice were analyzed by HPLC to estimate the amounts of corresponding amides (FIG. 4C).

In a further data set the test system is Abca4^−/−Rdh8^−/− mice. The data set can be described thus: Toxicity in treated Abca4−/−Rdh8−/− mice (Table 2). Particulars: 4-week-old Abca4−/−Rdh8−/− mice, oral gavage. It counts as in vivo. The method, then:
as §1, §2

`CC1=C(/C=C/C(C)=C/C=C/C(C)=C/CN)C(C)(C)CCC1` [QEA-A-001-NH2, retinylamine]: the “LRAT Substrate” value on LRAT is listed as 100%. Moreover, in data set [1], the “Protection by amide in liver” value is “Strong”. For the same molecule, the Toxicity entry with Abca4^−/−Rdh8^−/− mice was “None”.
Turning to `CC(/C=C/C=C(/C=C/C1=CCCCC1)C(C)(C)C)=C\CN` [QEA-B-001-NH2], at LRAT (conversion of the alcohol to ester), the LRAT substrate class result is on record as “good (Compounds classified as ‘good’ LRAT substrates converted at least 50% of their available alcohol substrates into corresponding esters)”. In addition, on LRAT, the “LRAT Substrate” value was found to be 80%. The “Protection by amide in liver” value in data set [1] is recorded as “Strong”. Besides, the “amidation in vivo (accumulation of amide forms in mouse liver)” value in data set [1] (liver HPLC) was “efficiently converted into amides”. Besides, the Toxicity entry with Abca4^−/−Rdh8^−/− mice is listed as “Yes”.
